Test results as given in US20240141294A1, “CGMP COMPLIANT PRODUCTION AND EXPANSION OF PLASMACYTOID DENDRITIC CELLS FROM HEMATOPOIETIC STEM AND PROGENITOR CELLS” (AARHUS UNIVERSITET, priority 2021, published 2024).

Experiments:
[1] = tested on: Cord-blood derived CD34+HSPCs; assay: SR1/IL-3 deprivation during final 3 days of HSPC-pDC differentiation: cell growth and viability; type: cell-based, human
Protocol: In addition, 1 μM of the small molecule inhibitor StemRegenin 1 (SR1, […] Technologies), 20 μg/mL streptomycin and 20 U/mL penicillin (Gibco, Life Technologies) and 50 μg/mL of ascorbic acid (Sigma Aldrich) was added. Cells were cultured at 37° C., 95% humidity, and 5% CO2 for 17 days, medium was replenished every 2-4 day. […] Viability and total cell numbers during expansion and differentiation of HSPCs was determined using a TC20 Automated Cell Counter (Bio-Rad).

HSPC-pDCs = assay: SR1/IL-3 deprivation: flow cytometry of CD123 and CD303; type: cell-based, human
Protocol: Priming of HSPC-pDCs was performed as previously described [Laustsen, A., et al 2018]. […] HSPC-pDCs were primed with 250 U/mL IFN-β (PBL Assay Science) and 250 U/mL IFN-γ (Peprotech) or left unprimed. Cells were primed for 24 hours before being phenotypically and functionally characterized.
Flow cytometry was used to immunophenotype pDCs. Briefly, cells were spun down and resuspended in 25 μL TruStain FcBlock (Biolegend) diluted in cold FACS buffer (PBS with 2% FCS and 1 mM EDTA) and incubated cold for 15 minutes. Cells were subsequently stained 25 μL with the following antibodies: APC anti-human Lineage Cocktail (CD3 (UCHT1), CD14 (HCD14), CD16 (3G8), CD19 (HIB19), CD20 (2H7) and CD56 (HCD56), 348801, BioLegend), FITC anti-human CD11c (3.9, 301604, BioLegend), BV421 CD14 (HCD14, 325628, BioLegend), PE CD34 (581, 343506, BioLegend), APC-eFluor780 anti-human CD123 (6H6, 47-1239-42, eBioscience), PE-Cy7 anti-human CD303 (201a, 354214, BioLegend). Cells were stained for 30 min before being washed two times in FACS buffer and finally resuspended in 200 μL FACS Buffer. Fluorescence intensities were measured using the Attune NxT Flow Cytometer equipped with 4 lasers (405 nm, 488 nm, 561 nm, and 638 nm). Data analysis was done using FlowJo (Version 10.8.1, Tree Star, Ashland, OR, USA.

Structure (SMILES): CC(C)n1cnc2c(NCCc3ccc(O)cc3)nc(-c3csc4ccccc34)nc21 [SR1, StemRegenin 1]
- fold change in number of cells in culture after the 3 days ([1]; named supplement removed day 14-17, standard condition 2.31 (±0.49)): 2.38 (±0.23)
- difference in the number of cells in culture between day 14 and 17 ([1]; named supplement removed from media day 14-17, standard condition 22.5×10^6 (±2.15×10^6)): 25.3×10^6 (±3.12×10^6) cells
- CD303 surface expression (HSPC-pDCs; SR1 removed from media vs standard condition): no apparent difference
- CD123 surface expression (HSPC-pDCs; SR1 removed from media, standard culturing condition MEI 1938): 988 (±391) MEI
